Test results from patent publication US9809623B2, “α4β7 peptide monomer and dimer antagonists” (Protagonist Therapeutics, Inc., priority 2014, dated 2017).
Numbered stars: 1 amine (or outer) side, 2 acyl side, 3 side chain; on linkers, the order of the positions; unused ones are H or OH. Bridge positions count the residues as written; N and C are the ends. Square brackets hold non-standard residues; d marks the D form. Peptide text beside a SMILES is read from it. I, II: the chains in the order shown. Phe(4-tBu) = CC(C)(C)c1ccc(C[C@H](N)C(=O)O)cc1; Diglycolyl = O=C(COCC(=O)[*:2])[*:1]; NMeR = CN[C@@H](CCCNC(=N)N)C(=O)O; β3hE = N[C@@H](CCC(=O)O)CC(=O)O; Pen = CC(C)(S)[C@H](N)C(=O)O

How the values were obtained:
α4β7 = target: T1, α4β7 (Mus musculus, UniProt P26011+Q00651); test: α4β7 Cell Adhesion Assay (Mouse), TK1 cells; assay type: cell-based; conditions: Table 4-B; read-out: Cell Adhesion α4β7 Mouse IC50
T1 construct: host or cells: TK1 mouse T cells
T1 sequence (Q00651 34-1039 limits assumed): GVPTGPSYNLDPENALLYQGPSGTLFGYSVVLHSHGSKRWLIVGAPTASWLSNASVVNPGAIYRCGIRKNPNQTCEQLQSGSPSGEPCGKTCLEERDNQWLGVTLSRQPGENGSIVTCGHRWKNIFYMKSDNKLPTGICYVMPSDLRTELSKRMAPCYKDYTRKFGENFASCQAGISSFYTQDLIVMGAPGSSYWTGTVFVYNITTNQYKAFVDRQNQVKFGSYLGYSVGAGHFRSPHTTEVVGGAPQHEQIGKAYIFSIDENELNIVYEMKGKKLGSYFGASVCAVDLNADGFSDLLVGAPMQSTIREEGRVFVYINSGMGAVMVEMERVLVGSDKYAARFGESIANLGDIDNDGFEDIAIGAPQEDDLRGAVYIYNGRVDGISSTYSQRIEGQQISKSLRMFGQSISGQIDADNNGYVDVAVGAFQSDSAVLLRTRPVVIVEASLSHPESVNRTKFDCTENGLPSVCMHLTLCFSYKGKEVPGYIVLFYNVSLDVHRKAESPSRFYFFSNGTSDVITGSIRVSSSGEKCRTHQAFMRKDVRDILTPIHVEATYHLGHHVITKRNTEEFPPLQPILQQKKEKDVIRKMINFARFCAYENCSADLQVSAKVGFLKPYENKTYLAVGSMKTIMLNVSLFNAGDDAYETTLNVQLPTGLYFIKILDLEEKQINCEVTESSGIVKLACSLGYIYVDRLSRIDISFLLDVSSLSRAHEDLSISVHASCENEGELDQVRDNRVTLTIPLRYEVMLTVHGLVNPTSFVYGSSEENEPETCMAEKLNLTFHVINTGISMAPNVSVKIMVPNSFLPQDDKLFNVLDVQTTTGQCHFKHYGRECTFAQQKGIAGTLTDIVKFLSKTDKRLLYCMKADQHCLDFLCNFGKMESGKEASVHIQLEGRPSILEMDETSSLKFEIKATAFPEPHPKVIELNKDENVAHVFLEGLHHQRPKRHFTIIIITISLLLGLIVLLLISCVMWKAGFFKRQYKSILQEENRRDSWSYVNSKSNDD
T1 sequence (P26011 20-806): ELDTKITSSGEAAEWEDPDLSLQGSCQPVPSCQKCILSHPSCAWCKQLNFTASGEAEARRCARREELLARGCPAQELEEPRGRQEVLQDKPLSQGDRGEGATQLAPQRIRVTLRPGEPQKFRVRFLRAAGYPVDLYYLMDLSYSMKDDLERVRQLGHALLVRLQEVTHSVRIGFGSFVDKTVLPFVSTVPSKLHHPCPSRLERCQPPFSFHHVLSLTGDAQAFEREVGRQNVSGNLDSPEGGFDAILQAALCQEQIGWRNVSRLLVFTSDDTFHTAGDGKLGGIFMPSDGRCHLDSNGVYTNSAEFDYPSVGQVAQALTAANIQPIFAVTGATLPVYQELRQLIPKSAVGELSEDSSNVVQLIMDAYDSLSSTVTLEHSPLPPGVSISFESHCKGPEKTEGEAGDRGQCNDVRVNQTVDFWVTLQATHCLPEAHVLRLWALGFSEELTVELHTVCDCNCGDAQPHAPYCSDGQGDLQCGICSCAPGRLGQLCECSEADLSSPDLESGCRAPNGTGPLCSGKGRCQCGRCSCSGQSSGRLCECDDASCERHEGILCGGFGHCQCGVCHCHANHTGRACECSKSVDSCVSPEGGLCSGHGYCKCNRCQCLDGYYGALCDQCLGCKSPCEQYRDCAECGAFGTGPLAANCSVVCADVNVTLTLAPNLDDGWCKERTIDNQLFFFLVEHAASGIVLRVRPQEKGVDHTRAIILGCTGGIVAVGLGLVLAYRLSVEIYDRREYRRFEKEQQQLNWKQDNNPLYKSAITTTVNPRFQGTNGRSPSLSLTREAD
Method in brief: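 Mouse TK1 cells in DMEM with 0.1% BSA, 10 mM HEPES pH 7 and 1 mM MnCl2 were allowed to adhere for 30-45 min at 37 °C to plates coated with recombinant human MAdCAM-1 Fc (200 ng/well) in the presence of serially diluted peptides. Adherent cells were quantified by MTT absorbance at 570 nm, with no-cell background subtracted for dose response.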

α4β1 = α4β1 (Homo sapiens, UniProt P05556+P13612); test: α4β1-VCAM Cell Adhesion Assay (Jurkat E6.1 human cells); assay type: cell-based; set-up: host or cells: Jurkat E6.1 human T cells; conditions: Table 4-B; read-out: Cell Adhesion α4β1 IC50
α4β1, sequence (P13612 34-1032): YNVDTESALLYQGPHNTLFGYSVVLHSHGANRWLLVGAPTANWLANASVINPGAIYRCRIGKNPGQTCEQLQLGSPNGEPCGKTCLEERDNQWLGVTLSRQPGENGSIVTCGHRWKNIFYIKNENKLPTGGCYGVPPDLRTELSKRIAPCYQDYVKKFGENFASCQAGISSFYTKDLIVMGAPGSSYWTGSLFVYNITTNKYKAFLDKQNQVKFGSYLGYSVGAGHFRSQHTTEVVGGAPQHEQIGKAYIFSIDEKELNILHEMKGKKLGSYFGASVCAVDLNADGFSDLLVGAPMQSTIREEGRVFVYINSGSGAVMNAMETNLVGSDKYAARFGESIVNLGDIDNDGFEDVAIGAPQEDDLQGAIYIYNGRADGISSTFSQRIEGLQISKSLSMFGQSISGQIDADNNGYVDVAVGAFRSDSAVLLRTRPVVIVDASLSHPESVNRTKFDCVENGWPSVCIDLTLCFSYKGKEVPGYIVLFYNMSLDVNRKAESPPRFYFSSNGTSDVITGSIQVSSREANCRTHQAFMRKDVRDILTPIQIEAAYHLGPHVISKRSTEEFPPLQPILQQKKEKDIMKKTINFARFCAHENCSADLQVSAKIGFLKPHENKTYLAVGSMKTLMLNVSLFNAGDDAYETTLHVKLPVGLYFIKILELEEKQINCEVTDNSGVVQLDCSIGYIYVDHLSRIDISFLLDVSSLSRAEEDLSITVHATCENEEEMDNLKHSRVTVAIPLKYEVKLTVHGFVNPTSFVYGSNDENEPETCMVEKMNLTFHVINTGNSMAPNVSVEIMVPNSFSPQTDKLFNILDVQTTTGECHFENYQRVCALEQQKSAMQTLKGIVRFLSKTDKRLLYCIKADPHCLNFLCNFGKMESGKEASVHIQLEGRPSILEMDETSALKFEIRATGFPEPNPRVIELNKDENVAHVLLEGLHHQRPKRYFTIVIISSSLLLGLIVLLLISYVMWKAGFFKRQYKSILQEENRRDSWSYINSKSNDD
α4β1, sequence (P05556 21-798): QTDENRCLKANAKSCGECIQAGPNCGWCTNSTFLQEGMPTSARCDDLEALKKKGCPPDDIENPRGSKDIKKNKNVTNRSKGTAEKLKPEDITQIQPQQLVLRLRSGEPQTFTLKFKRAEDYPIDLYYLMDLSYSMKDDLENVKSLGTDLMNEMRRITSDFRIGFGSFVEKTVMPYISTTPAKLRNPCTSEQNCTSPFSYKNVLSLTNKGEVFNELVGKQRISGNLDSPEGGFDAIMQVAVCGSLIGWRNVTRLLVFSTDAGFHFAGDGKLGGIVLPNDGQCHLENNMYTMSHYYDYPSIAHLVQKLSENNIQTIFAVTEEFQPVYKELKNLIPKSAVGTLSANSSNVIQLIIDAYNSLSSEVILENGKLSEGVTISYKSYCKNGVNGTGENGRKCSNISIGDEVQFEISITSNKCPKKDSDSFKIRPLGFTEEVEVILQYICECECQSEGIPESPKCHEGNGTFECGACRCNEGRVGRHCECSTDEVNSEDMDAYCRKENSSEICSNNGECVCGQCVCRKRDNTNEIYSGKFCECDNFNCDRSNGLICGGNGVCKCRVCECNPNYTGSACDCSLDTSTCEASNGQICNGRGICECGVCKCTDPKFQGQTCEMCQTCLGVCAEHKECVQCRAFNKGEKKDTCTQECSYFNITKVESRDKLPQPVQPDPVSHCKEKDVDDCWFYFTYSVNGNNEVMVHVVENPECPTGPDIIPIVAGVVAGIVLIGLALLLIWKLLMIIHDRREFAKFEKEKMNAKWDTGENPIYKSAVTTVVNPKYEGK
Method in brief: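 Jurkat E6.1 cells in DMEM with 0.1% BSA, 10 mM HEPES pH 7 and 1 mM MnCl2 were added (200,000/well) with serially diluted peptides to rh VCAM-1-Fc-coated wells (400 ng/well) for 30-45 min at 37 °C. Adherent cells after washing were quantified by MTT, absorbance 570 nm, with no-cell background subtracted for dose response.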

[1] = Dithiothreitol (DTT) Redox Stability Assay; assay type: physicochemical; conditions: Table 4-C, t1/2, 0.5 mM DTT
Method in brief: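 Peptide at 50 μM final in 100 mM Tris-Cl pH 7.5 was exposed to 0.5 mM DTT at room temperature. Aliquots taken at 20, 40, 80 and 120 min were quenched with acetic acid and analysed by reverse-phase HPLC at 220 nm for remaining oxidized parent. Half-lives were obtained by first-order exponential decay fit.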

Plasma Stability Assay = assay type: in vitro ADME; conditions: rat, Table 4-C, t1/2
Method in brief: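 Rat plasma at 37° C with gentle shaking, peptide added from 10 mM stock; samples taken at 0, 10, 30, 45, 60, 120 and 180 min and quenched 1:4 with acetonitrile/0.1% formic acid. After centrifugation, supernatants were mixed with internal standard peptide (1 ug/mL) and analysed by LC-MS.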

With `CC(=O)N[C@@H]1C(=O)N(C)[C@@H](CCCNC(=N)N)C(=O)N[C@@H](CO)C(=O)N[C@@H](CC(=O)O)C(=O)N[C@@H]([C@@H](C)O)C(=O)N[C@@H](CC(C)C)C(=O)N[C@H](C(=O)N[C@@H](Cc2ccc(C(C)(C)C)cc2)C(=O)N[C@@H](CCC(=O)O)CC(=O)N[C@H](CCCCNC(=O)COCC(=O)NCCCC[C@@H](NC(=O)C[C@H](CCC(=O)O)NC(=O)[C@H](Cc2ccc(C(C)(C)C)cc2)NC(=O)[C@H]2NC(=O)[C@H](CC(C)C)NC(=O)[C@H]([C@@H](C)O)NC(=O)[C@H](CC(=O)O)NC(=O)[C@H](CO)NC(=O)[C@H](CCCNC(=N)N)N(C)C(=O)[C@@H](NC(C)=O)C(C)(C)SSC2(C)C)C(N)=O)C(N)=O)C(C)(C)SSC1(C)C` [compound 218, [Ac-Pen-(N-Me-Arg)-Ser-Asp-Thr-Leu-Pen-Phe(4-tBu)-(β-homoGlu)-(D-Lys)-NH2]2-DIG] (I: Ac-[Pen][NMeR]SDTL[Pen][Phe(4-tBu)][β3hE][dK]-NH2 / II: Ac-[Pen][NMeR]SDTL[Pen][Phe(4-tBu)][β3hE][dK]-NH2; disulfide I:1-I:7, II:1-II:7; linker I:10-II:10 via Diglycolyl) the IC50 (α4β7) was 0.5 nM, the IC50 (α4β1) was greater than 100000 nM and the “DTT Min” value [1] was greater than 120 min. For the same compound, the half-life at 20 μM (Plasma Stability Assay) was greater than 6 h.
